Results as given in US11882816B2, “Genetically engineered non-human mammal, construction method therefor and use thereof” (priority 2017, dated 2024).

What was measured:
[1] = system: patients suffering from long-term inflammatory diseases such as rheumatoid arthritis; details: clinically, low doses; patients with long-term inflammatory diseases such as rheumatoid arthritis; ref. [10]; cited from earlier work
[2] = system: homozygous mice; test: Survival of hypertensive (Dox) homozygous mice on high-fat diet, weekly methotrexate injection; assay type: in vivo; details: hypertension (Dox) combined with high-fat diet, methotrexate 1 mg/kg weekly, at 8 weeks of co-administration, control 43%, FIG. 12B
Description: (§1) Homozygous mice, divided into 5 groups, are to fed with normal diet (Chow), high-fat diet (HF), high-fat diet plus boostin (HF+D), high-fat diet plus methotrexate (MTX) (HF+M), and high-fat diet plus boostin and methotrexate (HF+D+M). […] Homozygous mice are fed with normal diet (Chow) until 8 weeks old, and are fed with high fat diet HF (HF formula: 21.2% fat, 48.7% carbohydrate, 17.3% protein, and 0.25% cholesterol) for 8 weeks. The mice are divided in to groups, with each group having 15 mice. The HF group is fed with high-fat diet, and is injected with 100 μl of physiological saline weekly. The HF+M group is fed with high-fat diet, and is injected with methotrexate at a dose of 1 mg/kg once a week. The HF+D group is fed with high-fat diet and 1-2 mg/ml of doxycycline together with drinking water, and is injected with 100 μl of physiological saline weekly. The HF+D+M group is fed with high-fat diet, injected with methotrexate at a dose of 1 mg/kg once a week, and fed with doxycycline at 1-2 mg/ml together with drinking water. The blood pressure changes of the mice are periodically detected, and the data such as blood, blood lipids, blood pressure and death data etc. of the mice are collected.
As shown in FIGS. 11A to 11D, hypertension combined with a high-fat diet induce higher accumulation of triglycerides in the blood of mice. […]

[3] = system: homozygous mice; test: Detection of cytokines and adhesion molecules in plasma of homozygous mice on HF diet with/without Dox, weekly MTX; assay type: in vivo
Description: as §1
As shown in FIGS. 11A to 11D, hypertension combined with a high-fat diet induce higher accumulation of triglycerides in the blood of mice. The inventors, using homozygous mice, have studied the effects of methotrexate (MTX) (an anti-inflammatory drug) on cardiovascular. Male homozygous mice are fed with HF diet with/without the addition of doxycycline (Dox), and are further randomized by intraperitoneal injection of MTX or control (vector) weekly. […] Hypertension combined with a high-fat diet induced higher mortality of mice, but if injected with methotrexate weekly, the survival rate of mice is increased at 8 weeks of co-administration (74% versus 43%, FIG. 12B).

[4] = system: IL-6, ICAM-1, E-selectin, VCAM-1 expressions; details: general statement on the anti-inflammatory drug; cited from earlier work
[5] = system: homozygous mice; test: Quantification of ascending aortic atherosclerotic plaques in homozygous mice on HF diet with/without Dox, weekly MTX; assay type: in vivo; details: hypertensive (Dox) homozygous mice fed HF diet for 8 weeks, control 46%, P<0.05, FIGS. 12C-D
Description: Homozygous mice (Hom) and ApoE knockout mice (KO) are used as controls, the experiment is employed by dividing the mice into four groups, each group has 15 mice, four groups being normal diet group (Chow), high fat diet group (HF), higher fat diet group (H-HF) and ultra-high fat diet group (CH-HF). The mice are fed with normal diet group (Chow) until 8 weeks old and then are fed with different high fat diet, respectively being HF feed (HF formula: 21.2% fat, 48.7% carbohydrate, 17.3% protein, and 0.25% cholesterol), H-HF feed (H-HF formula: 21.2% fat, 48.7% carbohydrate, 17.3% protein, and 1.25% cholesterol), and CH-HF feed (CH-HF formula: 21.2% fat, 48.7% carbohydrate, 17.3% protein, 1.25% cholesterol, and 0.5% cholic acid). After 8 weeks of treatment, collecting the blood of the mice, detecting the body weight, heart weight, spleen weight and blood lipids of the mice, and isolating the mice aorta for oil red O staining so as to quantify the atherosclerotic plaque content.
(§2) Homozygous mice, divided into 5 groups, are to fed with normal diet (Chow), high-fat diet (HF), high-fat diet plus boostin (HF+D), high-fat diet plus methotrexate (MTX) (HF+M), and high-fat diet plus boostin and methotrexate (HF+D+M). […] The blood pressure changes of the mice are periodically detected, and the data such as blood, blood lipids, blood pressure and death data etc. of the mice are collected. […]

[6] = system: homozygous mice; test: Blood pressure of homozygous mice on HF diet with/without doxycycline, weekly MTX injection (non-invasive tail pressure measurement); assay type: in vivo; details: male homozygous mice, HF diet with/without Dox, MTX 1 mg/kg i.p. once a week; FIG. 12A
Protocol: The mice are divided into 3 groups for experiments, wild-type mice (Wt), homozygous mice (Hom) and heterozygous mice (Het), with each group having 15 mice. The mice are fed with normal diet (Chow) until 8 weeks old, and are administrated tetracycline analog doxycycline (1 to 2 mg/ml) with water. The blood pressure changes of mice are measured periodically. The method for measuring the blood pressure of mice is the method of non-invasive tail pressure measurement (iiTC Life Science, Woodland Hills, CA), wherein the mice are fixed in the sleeve and stay quiet in the sleeve for 10 minutes. Then the instrument is operated to measure the blood pressure at the tail of mice using […], three measurements are made for each operation, and the average is taken. Mice blood is collected, and body weight, heart weight, spleen weight, blood lipids and blood pressure of mice are measured.
as §2

[7] = hypertensive (Dox) homozygous mice, HF diet, MTX weekly, FIG. 12H-J
[8] = induced hypertensive MTX group compared with control group, FIGS. 12K-S

## CN(Cc1cnc2nc(N)nc(N)c2n1)c1ccc(C(=O)N[C@@H](CCC(=O)O)C(=O)O)cc1 [MTX, methotrexate]
[1]
  cardiovascular risk in patients: could reduce cardiovascular risk
[2]
  survival rate of mice: 74%
[3]; homozygous mice having normal blood pressure, HF diet, MTX weekly, FIG. 12H-J
  plasma concentration of MCP-5, intercellular adhesion molecule-1 and vascular cell adhesion molecules: would not produce any effect
[3]; [7]
  plasma concentration of intercellular adhesion molecule-1: would significantly reduce
  plasma concentration of monocyte chemoattractant protein (MCP)-5: would significantly reduce
[3]; [8]
  E-selectin level in plasma: decreased level
  IL-1β level in plasma: decreased level
  IL-6 level in plasma: decreased level
  IL-17 level in plasma: decreased level
  MCP-1 level in plasma: decreased level
  P-selectin level in plasma: decreased level
  granulocyte colony-stimulating factor level in plasma: decreased level
  interferon-γ level in plasma: decreased level
  tumor necrosis factor-α level in plasma: decreased level
[4]
  IL-6, ICAM-1, E-selectin, VCAM-1 expressions: can down-regulate
[5]
  atherosclerotic lesions: 34%
[6]
  blood pressure of the mice: would not alter
